# Assay results reported in patent US20020002171A1, “Materials and methods for killing nematodes and nematode eggs” (priority 2000, published 2002).
# System: Caenorhabditis elegans
# Assay: C. elegans L1 nematicidal dose response in 96-well plates, 5 day visual score (Example 2; same procedure for Example 7, Table 3)
# Type: in vivo
# Design: key to 5 Day Visual Score V1 / 5 Day Visual Score V2 / 5 Day Visual Score V3 / 5 Day Visual Score V4 / 5 Day Visual Score V6 / 5 Day Visual Score V5 / Initial HTS Run Visual Score / Follow-up HTS Run Visual Score: Dead: only stiff L1s (no movement); Dead (L4): worms are dead, but at a later larval stage; majority of worms are L1 (based on size) worms move when plate is tapped; majority of worms are L2 (based on size); majority of worms are L3 (based on size); majority of worms are L4 (based on size); AD: majority of worms are adult; #AD: 5 adult worms or less; B!: sterile (0-25 progeny); B: low broodsize (25-100 progeny); ˜B: moderate broodsize (100-250 progeny); <: reduced broodsize (250-500 progeny); OK: no effect (˜1000+ progeny)
# Conditions: for 5 Day Visual Score V4: 2.6 μM
# Protocol: Caenorhabditis elegans adults were grown on Nematode Growth Medium (NGM) until they produced eggs, then the adults were removed.
# The eggs were allowed to hatch, and the L1 larvae collected. See The Nematode Caenorhabditis elegans (1988) Cold Spring Harbor Laboratory Press. Using a Matrix Programmable Pipette, the L1s were distributed into 96-well tissue culture plates, 20 L1 in 50 μl NGM per well. Antibiotic/Antimyoticwas added to each well, and 1% by weight E. coli strain HB101. The subject anthelmintic compounds were stored at 5 mM in 100% DMSO. 0.7 μl of compounds 1-31 were added to the left-most column of wells to yield a final concentration of 70 μM in 1.4% DMSO, with 1.4% DMSO only as the control. The compounds were then subjected to 5 more 3-fold dilutions from left to right to yield 6 column concentrations of 70 μM, 23.3 μM, 7.8 μM, 2.6 μM, 0.9 μM, and 0.3 μM. Plates were stored in air-tight Rubbermaid plastic boxes at 20° C. The nematodes had cleared all control wells by day 4, and nematode viability was scored by visual examination under a 100× dissecting microsope on day 5. A visual viability scoring system was used as follows:
# Column V1 has a compound concentration of 70 μM with sequential 3-fold dilutions reported in columns V2, V3, V4, V5, and V6, respectively, such that the V6 concentration was 0.3 μM.
# The nematicidal activity of anthelmintic Compositions 48-168 were determined in accordance with the procedure outlined in Example 2.
# [1] = 0.3 μM, C. elegans L1, scored day 5
# [2] = 0.9 μM, C. elegans L1, scored day 5
# [3] = 7.8 μM, C. elegans L1, scored day 5
# [4] = 23.3 μM, C. elegans L1, scored day 5
# [5] = 70 μM, C. elegans L1, scored day 5
# [6] = dose response, dilution V1, day 5
# [7] = dose response, dilution V2, day 5
SMILES,5 Day Visual Score V6 [1],"5 Day Visual Score V4 (C. elegans L1, scored day 5)",5 Day Visual Score V5 [2],5 Day Visual Score V3 [3],5 Day Visual Score V2 [4],5 Day Visual Score V1 [5],other results
CCCCOc1ccc(C(=O)N2CC(OCCCc3ccccc3)CC2C(=O)NCc2ccccc2Br)cc1 (centres unmarked) [AKC 102],B (low broodsize (25-100 progeny)),L3,,,,,
CCCCOc1ccc(-c2noc(C3CCC(NC(=O)c4ccc5c(c4)OCO5)CC3)n2)cc1 (centres unmarked) [AKC 103],< (reduced broodsize (250-500 progeny)),B (low broodsize (25-100 progeny)),L4/#AD/B,Dead(L4),Dead(L3/L4),,
CCOc1ccccc1C1=NOC(c2cccc3ccccc23)C1C(=O)NCc1ccc(OC(F)(F)F)cc1 (centres unmarked) [AKC 105],,L2/Dead(L,,L2/Dead(L3),L2/Dead(L3),L2/Dead(L3),
O=C(Nc1ccc(OC(F)(F)F)cc1)NC1CCC(c2nc(-c3ccccc3)no2)CC1 (centres unmarked) [AKC 107],L2/Dead(L,Dead(L4),,,Dead(L2/L3),Dead,
O=C(Nc1ccc(Br)cc1)N1CCC(c2nc(-c3ccccc3)no2)CC1 [AKC 108],,L1,,L1,Dead,Dead,
O=C(NCCc1ccccc1F)C1C(c2ccccc2Cl)=NOC1c1ccc(-c2ccccc2)cc1 (centres unmarked) [AKC 110],L1,L1,L1,L1,L1,L1,
COc1ccccc1-c1noc(C(C)CNC(=O)Nc2ccc(OC(F)(F)F)cc2)n1 (centres unmarked) [AKC 111],OK (no effect (˜1000+ progeny)),Dead(L3/L,,L2,Dead,Dead,
Cc1ccc(-c2noc(C3CCC(CNC(=O)Nc4ccc(OC(F)(F)F)cc4)CC3)n2)cc1C (centres unmarked) [AKC 112],OK (no effect (˜1000+ progeny)),,#AD/˜B,,,,
O=C(NCC1CCC(c2nc(-c3ccccc3)no2)CC1)Nc1ccc(OC(F)(F)F)cc1 (centres unmarked) [AKC 113],L4/#AD/B,Dead(L2/L,,Dead,Dead,Dead,
O=C(Nc1ccc(Br)cc1)NC1CCC(c2nc(-c3ccccc3)no2)CC1 (centres unmarked) [AKC 114],˜B (moderate broodsize (100-250 progeny)),L3/Dead(L,,L3,L3/Dead(L4),Dead,
O=C(NCCCCCc1nc(-c2ccccc2)no1)Nc1ccc(OC(F)(F)F)cc1 [AKC 115],,Dead(L2),Dead(L2/L,L2/Dead(L2),Dead(L2/L3),Dead,
O=C(NCCc1ccc(F)cc1)C1C(c2ccccc2Cl)=NOC1c1ccc(-c2ccccc2)cc1 (centres unmarked) [AKC 119],< (reduced broodsize (250-500 progeny)),,,,,,
CC(C)(C)C1=NOC(c2ccc(-c3ccccc3)cc2)C1C(=O)NCCc1ccccc1F (centres unmarked) [AKC 120],OK (no effect (˜1000+ progeny)),,#AD/˜B,L1,,L1,
COc1ccc(C2=NOC(c3ccc(-c4ccccc4)cc3)C2C(=O)NCCc2ccccc2F)cc1 (centres unmarked) [AKC 121],,#AD/˜B,,,L1,L1,
CCOc1ccc(C2ON=C(c3ccc(F)cc3)C2C(=O)NCCc2ccc(F)cc2)cc1 (centres unmarked) [AKC 122],OK (no effect (˜1000+ progeny)),,,,L1,Dead,
CCOc1ccc(C2ON=C(c3ccc(N(C)C)cc3)C2C(=O)NCCc2ccc(F)cc2)cc1 (centres unmarked) [AKC 123],#AD/˜B,,,,,L1,

SMILES,5 Day Visual Score V6 [1],"5 Day Visual Score V4 (C. elegans L1, scored day 5)",5 Day Visual Score V5 [2],5 Day Visual Score V3 [3],5 Day Visual Score V2 [4],5 Day Visual Score V1 [5],other results
CCOc1cccc(C2ON=C(c3ccccc3OCC)C2C(=O)NCCc2ccc(OC)c(OCC)c2)c1 (centres unmarked) [AKC 124],L4/#AD/B,L4/#AD/B,L4/#AD/B,,,,
CCOc1cccc(C2ON=C(c3ccccc3OCC)C2C(=O)NCc2ccc(OC(F)(F)F)cc2)c1 (centres unmarked) [AKC 125],,L2,,L2,L2/Dead(L4),L2/Dead(L3),
CCCCOc1ccc(C(=O)N2CC(OCCCc3ccccc3)CC2C(=O)NCc2ccccc2OC)cc1 (centres unmarked) [AKC 126],#AD/˜B,#AD/˜B,˜B (moderate broodsize (100-250 progeny)),,,,
Cc1ccc(C(CC(=O)c2ccccc2)Nc2ccc(I)cc2)o1 (centres unmarked) [AKC 128],OK (no effect (˜1000+ progeny)),L1,#AD/˜B,Dead,Dead,Dead,
Cc1ccc(C(CC(=O)c2ccccc2)Nc2ccc(I)cc2F)o1 (centres unmarked) [AKC 129],,,OK (no effect (˜1000+ progeny)),,Dead,Dead,
Cc1ccc(C(CC(=O)c2ccc(C)c(C)c2)Nc2cc(Br)c(C)c(Br)c2)o1 (centres unmarked) [AKC 130],,#AD/˜B,OK (no effect (˜1000+ progeny)),,#AD/-B,Dead,
CCC(=O)C(C)C(Nc1cc(Br)c(C)c(Br)c1)c1ccc(C)o1 (centres unmarked) [AKC 131],< (reduced broodsize (250-500 progeny)),#AD/˜B,#AD/˜B,#AD/˜B,L1,Dead,
CCCc1ccc(C(Nc2ccc(-c3ccccc3)cc2)C2CCCCC2=O)cc1 (centres unmarked) [AKC 132],Dead,,,Dead,Dead,Dead(L2),
CCCc1ccc(C(CC(=O)c2ccc(C)cc2)Nc2ccc(-c3ccccc3)cc2)cc1 (centres unmarked) [AKC 133],Dead,Dead,Dead,Dead,Dead,Dead,
Fc1ccc(N2CCN(c3nc(NCCC(c4ccccc4)c4ccccc4)ns3)CC2)cc1 [AKC 134],OK (no effect (˜1000+ progeny)),,,Dead,Dead,Dead,
Fc1ccc(N2CCN(c3nc(NCc4ccc(C(F)(F)F)cc4)ns3)CC2)cc1 [AKC 135],,,˜B (moderate broodsize (100-250 progeny)),,L1,Dead,
CCCCCCCCS(=O)(=O)N1CCN(C(=O)C=Cc2cccc(C(F)(F)F)c2)CC1C(=O)NCc1ccc(C(F)(F)F)cc1 (centres unmarked) [AKC 171],,,< (reduced broodsize (250-500 progeny)),Dead(L4)/#A,L2,Dead,
CN(Cc1ccccc1)c1nc(NCc2ccccc2)ns1 [AKC 328],,,,,,,"Follow-up HTS Run % Run (Follow-up HTS run): 101%; Follow-up HTS Run mOD (Follow-up HTS run): 163 mOD; Initial HTS Run % Run (Initial HTS run): 98%; Initial HTS Run mOD (Initial HTS run): 108 mOD; 5 Day Visual Score V1 [6]: Dead; 5 Day Visual Score V2 [7]: L1; 5 Day Visual Score V5 (dose response, dilution V5, day 5): ˜B (moderate broodsize (100-250 progeny))"
CN(CCc1ccccc1)c1nc(NC2CCCCCCCCCCC2)ns1 [AKC 335],,,,,,,"Follow-up HTS Run % Run (Follow-up HTS run): 82%; Follow-up HTS Run Visual Score (Follow-up HTS run): Dead; Follow-up HTS Run mOD (Follow-up HTS run): 132 mOD; Initial HTS Run % Run (Initial HTS run): 104%; Initial HTS Run Visual Score (Initial HTS run): Dead; Initial HTS Run mOD (Initial HTS run): 114 mOD; 5 Day Visual Score V1 [6]: Dead; 5 Day Visual Score V2 [7]: Dead; 5 Day Visual Score V3 (dose response, dilution V3, day 5): Dead; 5 Day Visual Score V6 (dose response, dilution V6, day 5): OK (no effect (˜1000+ progeny))"
CCC1CCCCN1c1cc(Oc2ccc3oc4ccccc4c3c2)ncn1 (centres unmarked) [AKC 340],,,,,L1,L1,
O=C(NCCc1ccccc1F)C1C(c2ccc(F)cc2)=NOC1c1ccc(-c2ccccc2)cc1 (centres unmarked) [AKC 2153],,,,,L1,L1,
